Reference: ChEMBL document CHEMBL3882243, “Biphenyl compounds useful as muscarinic receptor antagonists” (2005)

Key:
[1] = target: Muscarinic acetylcholine receptor M3 (Homo sapiens, UniProt P20309); assay: Displacement of [3H]-NMS from human recombinant M3 receptor expressed in CHO cell membranes measured after 60 mins by topcount liquid scintillation counting
Cavia porcellus = assay: Bronchoprotective activity in Dunkan-Hartley guinea pig model of acetylcholine-induced bronchoconstriction assessed as efficacious dose that limited bronchrestriction response to 50 ug/mL dose of acetylcholine to doubling of baseline pulmonary resistance administered via nebulization for 10 mins measured at 1.5 hrs post dose by whole body plethysmography; assay type: functional

Chain of Muscarinic acetylcholine receptor M3 (P20309 whole entry): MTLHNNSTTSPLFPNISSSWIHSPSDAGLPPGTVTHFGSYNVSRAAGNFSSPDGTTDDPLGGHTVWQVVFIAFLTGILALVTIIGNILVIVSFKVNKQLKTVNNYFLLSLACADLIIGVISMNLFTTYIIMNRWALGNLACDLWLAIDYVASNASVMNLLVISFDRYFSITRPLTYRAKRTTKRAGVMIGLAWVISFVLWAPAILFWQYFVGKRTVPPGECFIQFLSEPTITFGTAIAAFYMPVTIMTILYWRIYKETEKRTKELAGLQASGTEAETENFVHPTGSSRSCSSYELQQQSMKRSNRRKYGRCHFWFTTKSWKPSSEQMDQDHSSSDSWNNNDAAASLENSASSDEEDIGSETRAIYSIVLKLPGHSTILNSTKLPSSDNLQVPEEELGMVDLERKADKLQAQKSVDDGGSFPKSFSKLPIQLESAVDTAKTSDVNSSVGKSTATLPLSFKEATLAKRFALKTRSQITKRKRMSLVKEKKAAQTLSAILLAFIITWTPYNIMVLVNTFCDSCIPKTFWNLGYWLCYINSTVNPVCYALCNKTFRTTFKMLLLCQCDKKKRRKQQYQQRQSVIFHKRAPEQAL

Row | Ki [1] [nM] | Structure (SMILES) | ED (Cavia porcellus) [µg/mL]
1 | < 5 | CCN(CCN1CCC(OC(=O)Nc2ccccc2-c2ccccc2)CC1)C(=O)c1ccc(CN2CCC(C(N)=O)CC2)cc1 | 
2 |  | CN(CCN1CCC(OC(=O)Nc2ccccc2-c2ccccc2)CC1)C(=O)c1ccc(CN2CCC(C(N)=O)CC2)cc1 [REVEFENACIN] | <200
